Where two headings read alike, the source gives them in different places.
Experiments:
[1] = target: CB2R; design: method as in PMID 36944112; details: previously reported; L7 (ortho): one value; read-out: K iCB2R mean; cited from earlier work
[2] = target: T1, human CB2R (Homo sapiens, UniProt P34972); test: in vitro binding affinity assay, membrane homogenates of CHO cells stably transfected with human CB2R, radioligand [3H]WIN55212-2; details: for Selectivity index (SI): SI = K iCB1R/K iCB2R; for Ki / K iCB2R mean: human CB2R, CHO membranes, [3H]WIN55212-2, mean of two values; for Ki: read-out: K iCB2R mean
T1 construct: expressed in transfected cells; host or cells: Chinese hamster ovary (CHO) cells, stably transfected; crude membrane homogenates
T1 sequence (P34972 whole entry): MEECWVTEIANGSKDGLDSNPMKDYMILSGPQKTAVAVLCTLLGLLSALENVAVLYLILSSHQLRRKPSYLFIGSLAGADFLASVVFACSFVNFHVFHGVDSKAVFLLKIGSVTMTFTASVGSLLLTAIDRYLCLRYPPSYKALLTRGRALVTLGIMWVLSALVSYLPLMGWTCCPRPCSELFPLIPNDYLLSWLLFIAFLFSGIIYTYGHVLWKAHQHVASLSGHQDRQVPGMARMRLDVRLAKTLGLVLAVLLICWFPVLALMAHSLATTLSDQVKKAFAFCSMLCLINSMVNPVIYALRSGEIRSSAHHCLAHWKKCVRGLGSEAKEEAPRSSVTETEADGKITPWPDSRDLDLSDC
From the text: (§1) The eight target compounds 2 o , m , p , 3 o , m , p , 4, and 5 have been investigated in in vitro binding affinity assays using crude membrane preparations obtained from Chinese hamster ovary cells stably transfected with either human CB1R or CB2R and the target‐specific radioligands [ ^ 3 H]SR141716A and [ ^ 3 H]WIN55212‐2, respectively (structures shown in Figure S90, Supporting Information).
(§2) The affinity assays have been performed with membrane homogenates from Chinese hamster ovary cells (CHO) stably transfected either with human CB2R or CB1R. Already published protocols have been used.^[ [99] ^]

[3] = stability in DMSO/H2O (1:1, v/v) by HPLC-UV-MS; type: physicochemical; details: RP-HPLC
Experimental: The stability was determined analogously to the purity determination and as described in a previous publication.^[ [79] ^] Instead of CH3CN or MeOH, a solvent mixture of DMSO/H2O (1:1, v/v) was used for all samples, as well as the blank measurements. Measurements were conducted directly after solvent addition and up to three days (Figure S82–S89, Supporting Information).
5 Determi naƟon of the Stability of Compounds 2o,m,p, 3o,m,p, 4, and 5
The stability measurements have been performed with an HPLC-UV-MS on an RP column. Blank samples of pure DMSO/H20 (1:1, v/v) have been measured prior to the target compounds. The target compounds have been dissolved in DMSO/H2O (1:1, v/v) for stability determinaƟon. The measurements have been started directly aŌer the addiƟon of the water. The double peaks or shoulders of the signals of the compound are related to the column that has been used. Broad signals have been obser ved in case of the nido-carborane derivaƟves .
Figure S82. RP-HPLC chromatograms of blank (DMSO/H2O, black and dark blue) and compound 2o, retention time: 11.4 min, purity after 2.5 d: […]

[4] = target: T2, human CB1R (Homo sapiens, UniProt P21554); test: in vitro binding affinity assay, membrane homogenates of CHO cells stably transfected with human CB1R, radioligand [3H]SR141716A; details: CHO membranes, mean of two values (c: mean of three values), read-out: K iCB1R mean
T2 construct: expressed in transfected cells; host or cells: Chinese hamster ovary (CHO) cells, stably transfected; crude membrane homogenates
T2 sequence (P21554 whole entry): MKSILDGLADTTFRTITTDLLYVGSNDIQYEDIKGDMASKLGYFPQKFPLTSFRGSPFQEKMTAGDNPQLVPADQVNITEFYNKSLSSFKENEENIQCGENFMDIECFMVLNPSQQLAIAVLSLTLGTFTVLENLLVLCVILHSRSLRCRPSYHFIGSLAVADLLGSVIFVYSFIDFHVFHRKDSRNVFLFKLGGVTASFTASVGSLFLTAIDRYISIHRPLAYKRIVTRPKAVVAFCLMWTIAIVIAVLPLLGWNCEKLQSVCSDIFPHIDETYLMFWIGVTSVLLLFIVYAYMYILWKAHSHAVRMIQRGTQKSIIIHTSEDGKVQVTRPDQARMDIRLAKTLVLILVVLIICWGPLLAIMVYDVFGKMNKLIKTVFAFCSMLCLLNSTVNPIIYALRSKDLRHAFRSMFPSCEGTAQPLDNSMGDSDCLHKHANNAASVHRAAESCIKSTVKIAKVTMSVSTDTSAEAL
From the text: as §1, §2

[5] = target: CB1R; design: method as in PMID 25272206; details: mean of at least three separate experiments in duplicate, other testing conditions; read-out: K iCB1R mean; cited from earlier work
[6] = target: CB2R; design: method as in PMID 25272206; details: mean of at least three separate experiments in duplicate, other testing conditions; read-out: K iCB2R mean; cited from earlier work
[7] = tested on: CB2R; test: CB2R binding affinity, literature value of Lucchesi et al., other testing conditions; details: SI = K iCB1R/K iCB2R, from literature values
From the text: Table 1 Binding affinities of target compounds 2 o , m , p , 3 o , m , p , 4, and 5. | column: Selectivity index (SI) ^e)

Molecule | Selectivity index (SI) [2] | Ki [2] [nM] | Ki [4] [nM] | purity after 1 d (stability) [3] | further results
(Z)‐N‐[3‐(4‐fluoro[^18F]butyl‐d 8)‐4,5‐dimethylthiazole‐2(3 H)‐ylidene]‐(1,7‐dicarba‐closo‐dodecaboranyl)‐carboxamide [[18F]LUZ5-d8] |  |  |  |  | Ki [1]: 0.8 nM
1‐(4‐Fluorobenzyl)‐6‐iodo‐2‐oxo‐N‐(1,2‐closo‐dicarba‐dodecaborane)‐1,2‐dihydro‐1,8‐naphthyridine‐3‐carboxamide [3 o] | 260 | 15.2 | 3940 |  | purity after 6 h (stability) [3]: 93%; purity after 6 h (stability) ([3]; listed as 3o): ~ 93%
6‐Bromo‐1‐(4‐fluorobenzyl)‐2‐oxo‐N‐(1,12‐closo‐dicarba‐dodecaborane)‐1,2‐dihydro‐1,8‐naphthyridine‐3‐carboxamide [2 p] | 937 | 7.71 | 7220 |  | 
C[C@H]1CC[C@@H](NC(=O)c2cc3cc(Br)cnc3n(Cc3ccc(F)cc3)c2=O)CC1 [L1 (cis)] |  |  |  |  | Ki [5]: 121 ± 5.32 nM; Ki [6]: 0.12 ± 0.002 nM; Selectivity index (SI) [7]: 1010
6‐Bromo‐1‐(4‐fluorobenzyl)‐2‐oxo‐N‐(1,2‐closo‐dicarba‐dodecaborane)‐1,2‐dihydro‐1,8‐naphthyridine‐3‐carboxamide [2 o] | 3378 | 29 | 97800 |  | purity after 2.5 d (stability) ([3]; after 2.5 d): > 98%
1‐(4‐Fluorobenzyl)‐6‐iodo‐2‐oxo‐N‐(1,12‐closo‐dicarba‐dodecaborane)‐1,2‐dihydro‐1,8‐naphthyridine‐3‐carboxamide [3 p] | 730 | 7.55 | 5520 | > 98% | 
6‐Bromo‐1‐(4‐fluorobenzyl)‐2‐oxo‐N‐(1,7‐closo‐dicarba‐dodecaborane)‐1,2‐dihydro‐1,8‐naphthyridine‐3‐carboxamide [2 m] | 273 | 6.16 | 1680 | ~ 98% | 
Sodium 1‐(4‐Fluorobenzyl)‐6‐iodo‐2‐oxo‐N‐(7,8‐nido‐dicarba‐dodecahydroundecaborate(–1))‐1,2‐dihydro‐1,8‐naphthyridine‐3‐carboxamide [Compound 5] | 247 | 368 | 90800 | > 97% | K iCB2R mean [2]: very low affinity
Sodium 6‐Bromo‐1‐(4‐fluorobenzyl)‐2‐oxo‐N‐(7,8‐nido‐dicarba‐dodecahydroundecaborate(–1))‐1,2‐dihydro‐1,8‐naphthyridine‐3‐carboxamide [Compound 4] | 62 | 857 | 53200 |  | K iCB2R mean [2]: very low affinity; purity after 3 d (stability) ([3]; after 3 d): ~ 98%
1‐(4‐Fluorobenzyl)‐6‐iodo‐2‐oxo‐N‐(1,7‐closo‐dicarba‐dodecaborane)‐1,2‐dihydro‐1,8‐naphthyridine‐3‐carboxamide [3 m] | 877 | 6.95 | 6090 | ~ 98% | 

Source: PMC12444839, “Development of Carborane‐Based Halogenated Naphthyridinone‐Analogues as Cannabinoid Receptor Type 2 (CB2R) Ligands” (Chemmedchem, 2025)
